The data set concerns mixed-species bacterial culture (Actinomyces viscosus, Lactobacillus casei, Fusobacterium nucleatum subsp. polymorphum, Streptococcus oralis and Veillonella …). Kind of data set: Short interval kill (SIK) test. To be noted: thirty seconds treatment, Live/Dead staining. The data set is classed as cell-based. As for the experimental part:
The anti-microbial efficacy of mouthwash formulations according to the present invention was tested using short interval kill (SIK) test. The formulations tested were the same as those used in Example 2. 500 μl of a mixed-species bacterial culture (Actinomyces viscosus (ATCC#43146), Lactobacillus casei (ATCC#334), Fusobacterium nucleatum subsp. polymorphum (ATCC#10953), Streptococcus oralis (ATCC#35037) and Veillonella parvula (ATCC#17745)) were transferred to sterile 2 ml microcentrifuge tubes. The samples were centrifuged for 10 min at ˜21 000×g to pellet bacterial cells. […] The re-suspended samples were subsequently treated with 100 μl of mouthwash or control solution. Bacterial killing was stopped after thirty seconds by adding 1.3 ml of D/E Neutralization Buffer. Samples were centrifuged for 10 min at 10,000 rpm to pellet bacterial cells. […] Finally, the pelleted cells were suspended in 150 μl of sterile PBS and aliquots were transferred to each of three wells of a sterile 96-well plate. To quantify the viable bacteria left after treatment, the bacterial suspensions were stained using Invitrogen BacLight Live/Dead viability kit. This kit consists of two fluorescent dyes, propidium iodine and SYTO9. The first dye, propidium iodide, is a red fluorescent DNA stain that can only penetrate bacterial cells whose membranes have been permeabilized (i.e. those cells that are “dead”). The second dye, SYTO9, is a green fluorescent DNA dye that is able to stain all bacterial cells. The bacterial suspensions were stained by adding 50 μl of a solution containing the two dyes in equal amounts to each well of the 96-well plate. Plates were then incubated for 15 min at room temperature, protected from light. The fluorescence of the samples were measured at an excitation wavelength of 485 nm and emission wavelengths of 535 nm and 635 nm. The results are illustrated in Table 8, and are provided as the percentage of cells that are viable relative to a control treatment with PBS alone.

Structures are written as SMILES.

Turning to `CCO` [Ethanol 100%, Ethanol], where the note is “Run 1”, the “percentage of cells that are viable relative to PBS control, Run 1” value came to 44%. Besides, the “percentage of cells that are viable relative to PBS control, Run 2” value (Run 2) worked out at 47%. The “percentage of cells that are viable relative to PBS control, Run 3” value (Run 3) was found to be 48%. Moreover, under “average of 3 runs”, the “percentage of cells that are viable relative to PBS control, Average” value worked out at 46%.

These data come from patent publication US20170266091A1, “Mouthwash Composition Comprising a Peroxide Source and an N-Acyl-L-Arginine Alkyl Ester Salt” (Colgate-Palmolive Company, priority 2014, published 2017).
